Test results taken from patent publication US20250152592A1, “PHARMACEUTICAL COMPOSITION COMPRISING ALLOPURINOL, FEBUXOSTAT OR PHARMACEUTICALLY ACCEPTABLE SALT THEREOF FOR PREVENTION OR TREATMENT OF CHRONIC KIDNEY DISEASE IN SUBJECT HAVING HIGH SERUM URIC ACID CONCENTRATION” (Indream Healthcare Inc., priority 2022, published 2025).

Tested on: patients with gout and a history of major cardiovascular diseases
Experiment: odds ratio for risk of developing or worsening chronic kidney disease, serum uric acid at or above 6 vs below 6
Format: in vivo, human
Procedure: In order to confirm the effect of allopurinol and febuxostat on the kidney disease, the data obtained in the clinical trial described above was analyzed.
The patients were classified into patient groups by specific biomarkers such as blood glucose level, blood pressure, and kidney disease steps, and then risks of developing or worsening the kidney disease in patients who had the serum uric acid concentration decreased to less than 6 and patients who maintained the serum uric acid concentration at or above 6 were confirmed using odds ratios (OR) after the administration of allopurinol and febuxostat, and the results are shown in Tables 1 to 3.
Risks of developing the kidney disease of the patients who had the serum uric acid concentration decreased to less than 6 and the patients who maintained the serum uric acid concentration at or above 6 by administering allopurinol were confirmed using the odds ratios, and the results are shown in the following Table 1.
(§1) In Table 6, the risks of developing the kidney disease of the patients who had the serum uric acid concentration decreased to less than 6 and the patients who maintained the serum uric acid concentration at or above 6 by administering febuxostat are confirmed using the odds ratios.
as §1, with “12,” for “6,”, “were” for “by administering febuxostat are”, “ratio, in both patient groups to which allopurinol or febuxostat was administered.” for “ratios.”

[1] = Table 12, both administration groups

Structure (SMILES)	prevention or treatment of chronic kidney disease when serum uric acid maintained below 6 (Table 6, blood glucose ≥126 mg/dl, DBP ≤80 mm/Hg, or SBP ≤130 mm/Hg)	prevention or treatment of chronic kidney disease when serum uric acid maintained below 6 (Table 6, serum uric acid of 8 mg/dL or more or gout lasting for 10 years or more)	prevention or treatment of chronic kidney disease when serum uric acid maintained below 6 [1]	prevention or treatment of chronic kidney disease when serum uric acid maintained below 6 (Table 12, blood glucose ≥126 mg/dl, DBP ≤80 mm/Hg, or SBP ≤130 mm/Hg)	risk of developing or worsening the chronic kidney disease, serum uric acid at or above 6 vs below 6 (odds ratio) (allopurinol, blood glucose level of 126 mg/dl or less)	risk of developing or worsening the chronic kidney disease, serum uric acid at or above 6 vs below 6 (odds ratio) (allopurinol, blood glucose level of 126 mg/dl or more)	risk of developing or worsening the kidney disease, serum uric acid at or above 6 vs below 6 (odds ratio) (allopurinol, diastolic blood pressure of 80 mm/Hg or higher)	risk of developing or worsening the chronic kidney disease, serum uric acid at or above 6 vs below 6 (odds ratio) (allopurinol, diastolic blood pressure of 80 mm/Hg or lower)	risk of developing or worsening the chronic kidney disease, serum uric acid at 6 or more vs below 6 (odds ratio) (allopurinol, having congestive cardiac failure)	risk of developing or worsening the chronic kidney disease, serum uric acid at 6 or more vs below 6 (odds ratio) (allopurinol, no congestive cardiac failure)	risk of developing or worsening the chronic kidney disease, serum uric acid at or above 6 vs below 6 (odds ratio) (allopurinol, systolic blood pressure of 130 mm/Hg or higher)	risk of developing or worsening the chronic kidney disease, serum uric acid at or above 6 vs below 6 (odds ratio) (allopurinol, systolic blood pressure of 130 mm/Hg or lower)
Cc1nc(-c2ccc(OCC(C)C)c(C#N)c2)sc1C(=O)O [febuxostat]	effectively prevented or treated	effectively prevented or treated	effectively prevented or treated									
Oc1ncnc2[nH]ncc12 [allopurinol]			effectively prevented or treated	effectively prevented or treated	about 1.34 times	about 2.53 times	about 1.35 times	about 2.04 times	about 1.21 times	about 1.84 times	about 1.54 times	about 1.93 times
